Measurements as given in patent US8410116B2, “Bis(styryl)pyrimidine or bis(styryl)benzene compounds, pharmaceutically acceptable salts thereof, preparation method thereof, and pharmaceutical composition for prevention or treatment of diseases featuring amyloids comprising the same as an active ingredient” (Korea Institute of Science and Technology, priority 2009, dated 2013).
Values belong to the compound of their own block, whether it stands above or below them.

What was measured:
[1] = system: beta amyloid (1-42) injected mice; assay: Y-maze task, acute Alzheimer's disease model; type: in vivo; conditions: mice i.c.v. injected with beta amyloid (1-42), compounds administered for 2 days, test on Day 2
Method: (§1) Mice 4-5 weeks old, each weighing 20˜25 g, were divided into groups of six. Intracerebroventricular injection was performed with a 50 μl Hamilton microsyringe fitted with a disposable 26-gauge needle as described by Laursen and Belknap (Laursen & Belknap, J. Pharmacol. Methods. 1986, 16, 355). It was inserted 2.4 mm deep into the bregma. All samples were administered to groups of 10 via oral routes or food pellets. After the intracerebroventricular injection, the compounds of the present invention were administered for 2 days to the mice which were then subjected to the Y-maze test on Day 2, the cognition test on Days 2 and 3, the passive avoidance test on Days 3 and 4, and the water maze test on Days 3 to 7. All data were averages of 6 measurements (mice).
(§2) Short-term memory was assessed by spontaneous alternation behavior in the Y-maze task. Spontaneous alternation behavior is considered to reflect spatial working memory, which is a form of short-term memory. A mouse was placed in one arm of a Y-maze and allowed to freely pass the three arms for 8 min. Spontaneous alternation behavior was defined as successive entries into the three arms. Percentage spontaneous alternation was calculated as the ratio of actual to possible alternations […], multiplied by 100.

beta amyloid (1-42) [2] = molecular target: beta amyloid (1-42) (Homo sapiens, UniProt P05067); assay: Inhibitory activity against beta amyloid fibril formation (ThT fluorescence); type: biochemical; conditions: for remaining activity at 10 µM: compound 10 μM, beta amyloid (1-42) 25 μM, 1 hr room temperature, beta amyloid alone (control) = 100
Method: The compounds of the present invention were assayed for inhibitory activity against the formation of beta amyloid fibrils as a function of ThT fluorescence intensity as follows. Beta amyloid (1-42) and each of the compounds of Examples 1 to 27 were dissolved in DMSO and diluted with PBS (phosphate-buffered saline, pH 7.4). The final concentrations of beta amyloid (1-42) (control) and each of the compounds of Examples 1 to 27 were set at 25 μM and 10 μM, respectively. The dilutions were incubated at room temperature for 1 hr before a solution of thioflavin T (ThT, 5 μM, pH 8.5) in glycin-NaOH buffer was added thereto. Fluorescence was measured at 450 nm for excitation (slit 10 nm) and […] for emission (slit 10 nm) on 96-well microplates using a multilabel fluorescence counter.

[3] = system: HT-22 cells incubated with beta amyloid (Aβ25-35); assay: Alleviating effect on beta amyloid toxicity in HT-22 cells (MTT); type: cell-based, murine; conditions: Mus musculus, compound pre-incubated 1 hr, then 25 μM beta amyloid (Aβ25-35) for 18 hrs, Aβ25-35 line = toxin alone, read-out: Cell Survival (%)
Method: (§3) The murine hippocampal neuronal cell line HT-22 was incubated at 37° C. in DMEM (Dulbecco's Modified Eagle's Medium) supplemented with 10% FBS (fetal bovine serum) and 1% penicillin/streptomycin in a 5% CO2 incubator. Before testing, HT-22 cells were seeded at a density of 5×10^3 cells/well onto 96-well plates containing serum-free DMEM and incubated for 1 hr. Afterwards, each of the compounds of Examples 1 to 27 was added at a concentration of 25 μM to each well before incubation for 18 hrs. 5 mg/ml MTT (3-(4,5-dimethyl-2-thiozolyl)-2,5-diphenyl-2H-tetrazolium bromide) solution was added in an amount of 15 μl per well and incubated for 4 hrs. A solubilization solution (10% SDS, 50% dimethylformamide, pH 4.7) was added in an amount of 100 μl to each well, followed by incubation for 18 hrs. Absorbance at 570 nm/630 nm was read on a microplate reader.
The following experiment was performed in order to examine the ability of the compounds of the Examples in accordance with the present invention to alleviate beta amyloid toxicity. HT-22 cells were cultured and incubated with the compounds of Examples 1 to 27 for 1 hr in the same manner as in Example 2. Cell necrosis was induced by beta amyloid toxicity. For this, the cells were incubated with 25 μM of beta amyloid (Aβ25-35) for 18 hrs. Subsequently, a 5 mg/ml MTT solution was added in an amount of 15 μl to each well, followed by incubation for 4 hrs. Then, the cells were again incubated for 18 hrs with 100 μl/well of the solubilization solution. Absorbance at 570 nm/630 nm was read on a microplate reader.

[4] = system: beta amyloid (1-42) injected mice; assay: Passive avoidance test, acute Alzheimer's disease model; type: in vivo; design: Passive Avoidance % of control: concentration or dose not given beside the values; conditions: for Passive Avoidance % of control: latency relative to control mice; for Passive Avoidance Latency: mice i.c.v. injected with beta amyloid (1-42), test on Days 3 and 4, 24 hours after training
Method: as §1
(§4) A passive avoidance test was performed as described in the literature (Song et al. J. Neurochem., 1998, 71, 875). Used was a passive avoidance box which was divided into two compartments: a lighted one and a dark one, separated by an automatic guillotine door. For training, mice were placed in the lighted compartment and electrically shocked with 0.25 mA for 1 sec whenever they entered the darkened compartment. 24 hours after training, the mice were placed in the lighted compartment and measured for latency time before entering the darkened compartment.

[5] = system: beta amyloid (1-42) injected mice; assay: Water maze test, acute Alzheimer's disease model; type: in vivo; conditions: mice injected with beta amyloid (1-42), Days 3 to 7
Method: as §1
In a water maze test, a mouse, when released from a randomly selected quadrant on each trial, was allowed to swim around the pool in search of an exit while the time taken to reach the platform (latency) was recorded.

HT-22 cells = assay: Cytotoxicity in HT-22 cell (MTT); type: cell-based, murine; conditions: compound 25 μM, 18 hrs
Method: The following experiment was performed with HT-22 cells in order to examine the cytotoxicity of the compounds of the Examples in accordance with the present invention.
as §3

[6] = system: beta amyloid (1-42) injected mice; assay: Cognitive performance task, acute Alzheimer's disease model; type: in vivo; design: Cognition % of control: concentration or dose not given beside the values; conditions: for Cognition Preference (investigation time for new matter/total investigation time): mice i.c.v. injected with beta amyloid (1-42), test on Days 2 and 3; for Cognition % of control: preference relative to control mice
Method: as §1
(§5) For the cognitive performance task, two identical substances were respectively placed 5 cm apart from two corners and the time it took for a mouse to investigate the given and new substances was measured. Investigation was defined as the condition in which a mouse sniffed with the head directing toward the substance within a diameter of 2 cm or touched the substance.

[7] = system: beta amyloid (1-42) injected mice; assay: Behavior tests with acute AD model taken together (Y-maze, cognitive performance, passive avoidance); type: in vivo; conditions: for Memory and learning of beta amyloid (1-42) injected mice (in words): data of Table 6, with statistical significance
Method: as §1, §2, §5, §4

beta amyloid (1-42) [8] = assay: ELISA for beta amyloid (1-42) in cerebra of transgenic mice; type: in vivo; conditions: 11 months old transgenic mice, versus control
Method: (§6) In order to examine whether this effect resulted from inhibitory activity against the deposition of beta amyloid or from a decrease in the level of beta amyloid, the cerebra of the transgenic mice were immunohistochemically analyzed. In this regard, after being removed from the transgenic mice which were 11 months old upon completion of the behavior test, the right cerebral hemispheres were measured for amyloid plaque levels in the cerebral cortex and hippocampus using an immunostaining or ELISA (Enzyme-linked immunosorbent assay) method.
(§7) Amyloid plaques were stained with Congo red and counted. […] FIG. 4D gives neuronal cell count data, showing a larger crowd in the group treated with the compound of Example 1.

beta amyloid (1-40) = assay: ELISA for beta amyloid (1-40) in cerebra of transgenic mice; type: in vivo; conditions: 11 months old transgenic mice, versus control
Method: as §6, §7

[9] = system: double transgenic mice with mutations in both APP and presenilin 1; assay: Context fear conditioning in transgenic mice; type: in vivo
Method: (§8) Double transgenic mice with mutations in both APP and presenilin 1 were used for the tests. The double transgenic mice, each weighing 26-39 g, were eight months old. They were divided into groups of 10 and administered for 2 to 3 months with the compound of Example 1 through food pellets (3 mg/pellet) before conducting the behavior tests.
A memory test was performed in context fear conditioning. Five trials of tone-shock pairing of CS-US (conditioned stimulus-unconditioned stimulus) were given to mice. On the next day, the mice were left in the stimulated context under no stimulus conditions and observed for freezing. […] During the test, there was no difference in average body weight between the two groups.

amyloid plaques = assay: Amyloid plaque counts (Congo red) in cerebra of transgenic mice; type: in vivo; conditions: cerebral cortex and hippocampus, 11 months old transgenic mice, versus control
Method: as §6, §7

[10] = system: double transgenic mice with mutations in both APP and presenilin 1; assay: Y-maze task and cognitive performance tests in transgenic mice; type: in vivo; conditions: food pellets (3 mg/pellet) for 2 months, 10 month old transgenic mice
Method: as §8
After administration of the compound of Example 1 for 2 months (for 10 month old mice), the mice were tested for learning and memory through the Y-maze task and cognitive performance tests.

neurons = assay: Neuronal cell count in cerebra of transgenic mice; type: in vivo; conditions: 11 months old transgenic mice, versus control
Method: as §6, §7

[11] = compared to beta amyloid (1-42) injected mice, % of control

Sequence of beta amyloid (1-42) (Homo sapiens, UniProt P05067) (P05067 672-713 limits assumed): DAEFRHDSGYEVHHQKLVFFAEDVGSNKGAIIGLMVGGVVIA

Compound: Aβ1-42: beta amyloid peptide of 42 amino acids, injected intracerebroventricularly into mice to induce acute Alzheimer's disease [reference compound]
Y-Maze Spontaneous Alternation (%) [1]: 61.6%
Passive Avoidance % of control [4]: 50.4%
Passive Avoidance % of control ([4]; listed as beta amyloid (1-42)): about 50%
Passive Avoidance Latency [4]: 89.9 s
Spatial learning ability in water maze (latency over sessions), FIG. 1 [5]: deficient in spatial memory
Reduction of preference for the new matter compared to the control ([6]; beta amyloid (1-42) injected mice): about 16%
Cognition Preference (investigation time for new matter/total investigation time) [6]: 0.54 ± 0.02
Cognition % of control [6]: 84%

Compound: CN(C)c1cc(/C=C/c2cc(/C=C/c3ccc(O)c(N(C)C)c3)ncn2)ccc1O [Ex. 2, (E,E)-4,6-Bis[4′-hydroxy-3′-(N,N-dimethylamino)styryl]pyrimidine]
Y-Maze Spontaneous Alternation (%) [1]: 71.3%
remaining activity at 10 µM (beta amyloid (1-42) [2]): 16.5 ± 2.6%
viability at 25 µM [3]: 85.3 ± 0.1%
Passive Avoidance % of control [4]: 66.1%
Passive Avoidance Latency [4]: 117.8 s
Spatial learning ability in water maze (latency over sessions), FIG. 1 [5]: recover spatial learning ability
Cell Survival (%) (HT-22 cells): 146.2 ± 26.6%
Cognition Preference (investigation time for new matter/total investigation time) [6]: 0.53 ± 0.05
Cognition % of control [6]: 82%
Memory and learning of beta amyloid (1-42) injected mice (in words) [7]: increased memory

Compound: COc1ccc(/C=C/c2cc(/C=C/c3ccc(OC)c(O)c3)ncn2)cc1O [Ex. 1, (E,E)-4,6-Bis(3′-hydroxy-4′-methoxystyryl)pyrimidine]
Y-Maze Spontaneous Alternation (%) [1]: 72.2%
remaining activity at 10 µM (beta amyloid (1-42) [2]): 19.1 ± 0.6%
Level of beta amyloid (1-42), ELISA, FIG. 4C (beta amyloid (1-42) [8]): decreasing pattern
Level of beta amyloid (1-40), ELISA, FIG. 4B (beta amyloid (1-40)): decreasing pattern
Average body weight ([9]; transgenic mice during the test, treated versus control group): no difference
Freezing in context fear conditioning, FIG. 3C ([9]; transgenic mice, compared to control): longer time freezing
Counts of amyloid plaques stained with Congo red, FIG. 4A (amyloid plaques): smaller
viability at 25 µM [3]: 91.8 ± 8.8%
Improvement in passive avoidance performance [4, 11]: highest improvement
Passive Avoidance % of control [4]: 80.9%
Passive Avoidance Latency [4]: 144.2 s
Spatial learning ability in water maze (latency over sessions), FIG. 1 [5]: recover spatial learning ability
Learning and memory in Y-maze and cognitive performance, FIGS. 3A and 3B [10]: memory impairment was alleviated
Cell Survival (%) (HT-22 cells): 135.6 ± 6.1%
Cognition Preference (investigation time for new matter/total investigation time) [6]: 0.59 ± 0.03
Cognition % of control [6]: 92%
Learning and memory improvement, dose dependence, FIG. 2 ([7]; 50, 100, 200 mg/kg p.o., Y-maze, cognitive performance, passive avoidance): dose-dependent manner
Memory and learning of beta amyloid (1-42) injected mice (in words) [7]: increased memory
Neuronal cell count, FIG. 4D (neurons): larger crowd

Second part, led by results:

Inhibitory activity against fibril formation (in words) (beta amyloid (1-42) [2]; Table 3): remarkable inhibitory activity
remaining activity at 10 µM (beta amyloid (1-42) [2]): 6.3 ± 1.8%
Compound: CN(C)c1ccc(/C=C/c2cc(/C=C/c3ccc(N(C)C)c(O)c3)ncn2)cc1O [Ex. 7, (E,E)-4,6-bis[3′-hydroxy-4′-(N,N-dimethylamino)styryl]pyrimidine]
Y-Maze Spontaneous Alternation (%) [1]: 67.0%
viability at 25 µM [3]: 76.6 ± 12.1%
Passive Avoidance % of control [4]: 68.7%
Passive Avoidance Latency [4]: 122.5 s
Spatial learning ability in water maze (latency over sessions), FIG. 1 [5]: recover spatial learning ability
Cell Survival (%) (HT-22 cells): 132.8 ± 41.1%
Cognition Preference (investigation time for new matter/total investigation time) [6]: 0.57 ± 0.02
Cognition % of control [6]: 89%
Memory and learning of beta amyloid (1-42) injected mice (in words) [7]: increased memory

remaining activity at 10 µM (beta amyloid (1-42) [2]): 20.7 ± 5.4%
Compound: COc1cc(/C=C/c2cc(/C=C/c3ccc(O)c(OC)c3)ncn2)ccc1O [Ex. 6, (E,E)-4,6-bis(4′-hydroxy-3′-methoxystyryl)pyrimidine]
Y-Maze Spontaneous Alternation (%) [1]: 67.9%
viability at 25 µM [3]: 103 ± 13%
Passive Avoidance % of control [4]: 78.1%
Passive Avoidance Latency [4]: 139.2 s
Spatial learning ability in water maze (latency over sessions), FIG. 1 [5]: recover spatial learning ability
Cell Survival (%) (HT-22 cells): 215.6 ± 3.5%
Recovery of preference for the new matter [6, 11]: about 11%
Cognition Preference (investigation time for new matter/total investigation time) [6]: 0.61 ± 0.03
Cognition % of control [6]: 95%
Memory and learning of beta amyloid (1-42) injected mice (in words) [7]: increased memory
